Measurements from US8252826B2, “Cyclopentyl- and cycloheptylpyrazoles” (Hoffmann-La Roche Inc., priority 2010, dated 2012).

The compounds below were run against T1, FXR ligand binding domain (Homo sapiens, UniProt Q96RI1) (assay: Radioligand binding assay (scintillation proximity radioligand displacement)).
T1 sequence (Q96RI1 211-483 limits assumed): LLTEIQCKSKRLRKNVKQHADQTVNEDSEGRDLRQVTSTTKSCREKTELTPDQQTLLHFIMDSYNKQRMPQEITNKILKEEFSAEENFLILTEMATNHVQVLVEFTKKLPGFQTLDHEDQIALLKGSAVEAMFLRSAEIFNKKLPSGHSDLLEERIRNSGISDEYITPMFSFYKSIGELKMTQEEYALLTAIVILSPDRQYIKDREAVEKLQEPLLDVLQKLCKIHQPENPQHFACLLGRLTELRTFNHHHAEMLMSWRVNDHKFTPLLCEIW
Protocol: Radioligand Binding Assay
Binding of test substances to the FXR ligand binding domain was assessed in a radioligand displacement assay. The assay was performed in a buffer consisting of 50 mM Hepes, pH 7.4, 10 mM NaCl, 5 mM MgCl2. […] All binding assays were performed in 96-well plates and the amount of bound ligand was measured on a Packard TopCount using OptiPlates (Packard). Dose response curves were performed within a range of concentration from 6×10^−9 M to 2.5×10^−5 M.

Compound | IC50 [µM]
COC(=O)c1cc(C)c(OCC(c2c3c(nn2-c2ccc(Cl)cc2)CCC3)C2CCCCC2)c(C)c1 (stereo not drawn) [Example 1, 4-{2-[2-(4-Chloro-phenyl)-2,4,5,6-tetrahydro-cyclopentapyrazol-3-yl]-2-cyclohexyl-ethoxy}-3,5-dimethyl-benzoic acid methyl ester] | 28.7
N#Cc1ccc(OCC(c2c3c(nn2-c2ccc(Cl)cc2)CCC3)C2CCCCC2)c(F)c1 (stereo not drawn) [Example 3, 4-{2-[2-(4-Chloro-phenyl)-2,4,5,6-tetrahydro-cyclopentapyrazol-3-yl]-2-cyclohexyl-ethoxy}-3-fluoro-benzonitrile] | 1.3
O=C(NC1CCCCC1)C(c1c2c(nn1-c1ccc(Cl)cc1)CCC2)C1CCCCC1 (stereo not drawn) [Example 4, 2-[2-(4-Chloro-phenyl)-2,4,5,6-tetrahydro-cyclopentapyrazol-3-yl]-2,N-dicyclohexyl-acetamide] | 3.3
Fc1cc(-c2nnn[nH]2)ccc1OCC(c1c2c(nn1-c1ccc(Cl)cc1)CCC2)C1CCCCC1 (stereo not drawn) [Example 5, 2-(4-Chloro-phenyl)-3-{1-cyclohexyl-2-[2-fluoro-4-(2H-tetrazol-5-yl)-phenoxy]-ethyl}-2,4,5,6-tetrahydro-cyclopentapyrazole] | 0.092
O=C(O)c1ccc(NC(=O)C(c2c3c(nn2-c2ccc(Cl)cc2)CCC3)C2CCCCC2)c(F)c1 (stereo not drawn) [Example 6, 4-{2-[2-(4-Chloro-phenyl)-2,4,5,6-tetrahydro-cyclopentapyrazol-3-yl]-2-cyclohexyl-acetylamino}-3-fluoro-benzoic acid] | 0.603
O=C(O)c1ccc(OCC(c2c3c(nn2-c2ccc(Cl)cc2)CCC3)C2CCCCC2)nc1 (stereo not drawn) [Example 7, 6-{2-[2-(4-Chloro-phenyl)-2,4,5,6-tetrahydro-cyclopentapyrazol-3-yl]-2-cyclohexyl-ethoxy}-nicotinic acid] | 0.052
O=C(O)c1ccc(SCC(c2c3c(nn2-c2ccc(Cl)cc2)CCC3)C2CCCCC2)cc1 (stereo not drawn) [Example 8, 4-{2-[2-(4-Chloro-phenyl)-2,4,5,6-tetrahydro-cyclopentapyrazol-3-yl]-2-cyclohexyl-ethylsulfanyl}-benzoic acid] | 1.1
CCOC(=O)C(C)(C)Oc1ccc(NC(=O)C(c2c3c(nn2-c2ccc(Cl)cc2)CCCCC3)C2CCCCC2)c(F)c1 (stereo not drawn) [Example 9, 2-(4-{2-[2-(4-Chloro-phenyl)-2,4,5,6,7,8-hexahydro-cycloheptapyrazol-3-yl]-2-cyclohexyl-acetylamino}-3-fluoro-phenoxy)-2-methyl-propionic acid ethyl ester] | 21.4
CC(C)(Oc1ccc(NC(=O)C(c2c3c(nn2-c2ccc(Cl)cc2)CCCCC3)C2CCCCC2)c(F)c1)C(=O)O (stereo not drawn) [Example 10, 2-(4-{2-[2-(4-Chloro-phenyl)-2,4,5,6,7,8-hexahydro-cycloheptapyrazol-3-yl]-2-cyclohexyl-acetylamino}-3-fluoro-phenoxy)-2-methyl-propionic acid] | 1.3
O=C(NC1CCCCC1)C(c1c2c(nn1-c1ccc(Cl)cc1)CCCCC2)C1CCCCC1 (stereo not drawn) [Example 11, 2-[2-(4-Chloro-phenyl)-2,4,5,6,7,8-hexahydro-cycloheptapyrazol-3-yl]-2,N-dicyclohexyl-acetamide] | 2.4
COC(=O)c1ccc(NC(=O)C(c2c3c(nn2-c2ccc(Cl)cc2)CCCCC3)C2CCCCC2)c(F)c1 (stereo not drawn) [Example 12, 4-{2-[2-(4-Chloro-phenyl)-2,4,5,6,7,8-hexahydro-cycloheptapyrazol-3-yl]-2-cyclohexyl-acetylamino}-3-fluoro-benzoic acid methyl ester] | 7
O=C(O)c1ccc(NC(=O)C(c2c3c(nn2-c2ccc(Cl)cc2)CCCCC3)C2CCCCC2)c(F)c1 (stereo not drawn) [Example 13, 4-{2-[2-(4-Chloro-phenyl)-2,4,5,6,7,8-hexahydro-cycloheptapyrazol-3-yl]-2-cyclohexyl-acetylamino}-3-fluoro-benzoic acid] | 1.7
N#Cc1ccc(OCC(c2c3c(nn2-c2ccc(Cl)cc2)CCCCC3)C2CCCCC2)c(F)c1 (stereo not drawn) [Example 14, 4-{2-[2-(4-Chloro-phenyl)-2,4,5,6,7,8-hexahydro-cycloheptapyrazol-3-yl]-2-cyclohexyl-ethoxy}-3-fluoro-benzonitrile] | 21.3
Cc1cc(C(=O)O)cc(C)c1OCC(c1c2c(nn1-c1ccc(Cl)cc1)CCCCC2)C1CCCCC1 (stereo not drawn) [Example 15, 4-{2-[2-(4-Chloro-phenyl)-2,4,5,6,7,8-hexahydro-cycloheptapyrazol-3-yl]-2-cyclohexyl-ethoxy}-3,5-dimethyl-benzoic acid] | 0.53
Fc1cc(-c2nnn[nH]2)ccc1OCC(c1c2c(nn1-c1ccc(Cl)cc1)CCCCC2)C1CCCCC1 (stereo not drawn) [Example 16, 2-(4-Chloro-phenyl)-3-{1-cyclohexyl-2-[2-fluoro-4-(1H-tetrazol-5-yl)-phenoxy]-ethyl}-2,4,5,6,7,8-hexahydro-cycloheptapyrazole] | 0.155
